Reference: patent US9376429B2, “Sodium channel blockers, preparation method thereof and use thereof” (Daewoong Pharmaceutical Co., Ltd., priority 2012, dated 2016)

Biological target: T1, sodium ion channel (Nav1.7) (Homo sapiens, UniProt Q15858)
T1 construct: host or cells: HEK293
Experiment: Blocking effect against sodium ion channel (Nav1.7), IonFlux16 auto patch clamp, hNav1.7 HEK293 cells
Format: cell-based
Conditions: peak current after 50 seconds treatment, eight concentrations
Procedure: In order to measure the activities of the inventive compounds as antagonists, an experiment on a blocking effect against the sodium ion channel (Nav1.7) was carried out as follows.
The hNav1.7 HEK293 cell line used was a cell line having a human sodium ion channel 1.7 gene (type IX voltage-gated sodium channel alpha subunit) in human embryonic kidney (HEK) 293 cells and was purchased from Millipore. The medium used was prepared by adding 1% 100×NEAA and 10% heat inactivated FBS to DMEM F-12 and adding 1% P/S as an antibiotic thereto. G-418 as a […] was added during subculture, and the hNav1.7 HEK293 cells were cultured to a confluence of about 80% in a T75 flask in a 5% CO2 incubator at 37° C. for 2 or 3 days and detached from the flask by treatment with 0.25% trypsin solution. Then, the cells were collected by centrifugation and used in the experiment.
The compounds prepared in the Examples of the present invention were dissolved in dimethyl sulfoxide (DMSO) and used in the experiment. 90 mM and 10 mM DMSO stock solutions were prepared from each of the compounds and diluted in an extracellular solution (4 mM KCl, 138 mM NaCl, 1 mM MgCl2, 1.8 mM CaCl2, 5.6 mM glucose, 10 mM HEPES, pH 7.45) at various concentrations so that the final concentration of each compound in DMSO was 0.3% or less.
To measure the sodium ion channel blocking effect, an IonFlux16 Auto patch clamp system (Fluxion, Inc.) and a plate for exclusive use were used. The cells were distributed in an extracellular solution (4 mM KCl, 138 mM NaCl, 1 mM MgCl2, 1.8 mM CaCl2, 5.6 mM glucose, 10 mM HEPES, pH 7.45), and then dispensed in the specified region of the plate, and each of the prepared compound samples was diluted at various concentrations, and then dispensed in the specified region of the plate.
Specifically, eight concentrations per compound were set, and percent inhibition was determined by calculating the percentage of inhibition of the peak current, generated after treating the cells with each concentration of the compound for 50 seconds, relative to the peak current generated before treatment with the compound, and the IC50 value was calculated using the Sigma plot program. In Table 2 below, the percent inhibition of Nav1.7 is rated as follows: […]

T1 sequence (Q15858 whole entry): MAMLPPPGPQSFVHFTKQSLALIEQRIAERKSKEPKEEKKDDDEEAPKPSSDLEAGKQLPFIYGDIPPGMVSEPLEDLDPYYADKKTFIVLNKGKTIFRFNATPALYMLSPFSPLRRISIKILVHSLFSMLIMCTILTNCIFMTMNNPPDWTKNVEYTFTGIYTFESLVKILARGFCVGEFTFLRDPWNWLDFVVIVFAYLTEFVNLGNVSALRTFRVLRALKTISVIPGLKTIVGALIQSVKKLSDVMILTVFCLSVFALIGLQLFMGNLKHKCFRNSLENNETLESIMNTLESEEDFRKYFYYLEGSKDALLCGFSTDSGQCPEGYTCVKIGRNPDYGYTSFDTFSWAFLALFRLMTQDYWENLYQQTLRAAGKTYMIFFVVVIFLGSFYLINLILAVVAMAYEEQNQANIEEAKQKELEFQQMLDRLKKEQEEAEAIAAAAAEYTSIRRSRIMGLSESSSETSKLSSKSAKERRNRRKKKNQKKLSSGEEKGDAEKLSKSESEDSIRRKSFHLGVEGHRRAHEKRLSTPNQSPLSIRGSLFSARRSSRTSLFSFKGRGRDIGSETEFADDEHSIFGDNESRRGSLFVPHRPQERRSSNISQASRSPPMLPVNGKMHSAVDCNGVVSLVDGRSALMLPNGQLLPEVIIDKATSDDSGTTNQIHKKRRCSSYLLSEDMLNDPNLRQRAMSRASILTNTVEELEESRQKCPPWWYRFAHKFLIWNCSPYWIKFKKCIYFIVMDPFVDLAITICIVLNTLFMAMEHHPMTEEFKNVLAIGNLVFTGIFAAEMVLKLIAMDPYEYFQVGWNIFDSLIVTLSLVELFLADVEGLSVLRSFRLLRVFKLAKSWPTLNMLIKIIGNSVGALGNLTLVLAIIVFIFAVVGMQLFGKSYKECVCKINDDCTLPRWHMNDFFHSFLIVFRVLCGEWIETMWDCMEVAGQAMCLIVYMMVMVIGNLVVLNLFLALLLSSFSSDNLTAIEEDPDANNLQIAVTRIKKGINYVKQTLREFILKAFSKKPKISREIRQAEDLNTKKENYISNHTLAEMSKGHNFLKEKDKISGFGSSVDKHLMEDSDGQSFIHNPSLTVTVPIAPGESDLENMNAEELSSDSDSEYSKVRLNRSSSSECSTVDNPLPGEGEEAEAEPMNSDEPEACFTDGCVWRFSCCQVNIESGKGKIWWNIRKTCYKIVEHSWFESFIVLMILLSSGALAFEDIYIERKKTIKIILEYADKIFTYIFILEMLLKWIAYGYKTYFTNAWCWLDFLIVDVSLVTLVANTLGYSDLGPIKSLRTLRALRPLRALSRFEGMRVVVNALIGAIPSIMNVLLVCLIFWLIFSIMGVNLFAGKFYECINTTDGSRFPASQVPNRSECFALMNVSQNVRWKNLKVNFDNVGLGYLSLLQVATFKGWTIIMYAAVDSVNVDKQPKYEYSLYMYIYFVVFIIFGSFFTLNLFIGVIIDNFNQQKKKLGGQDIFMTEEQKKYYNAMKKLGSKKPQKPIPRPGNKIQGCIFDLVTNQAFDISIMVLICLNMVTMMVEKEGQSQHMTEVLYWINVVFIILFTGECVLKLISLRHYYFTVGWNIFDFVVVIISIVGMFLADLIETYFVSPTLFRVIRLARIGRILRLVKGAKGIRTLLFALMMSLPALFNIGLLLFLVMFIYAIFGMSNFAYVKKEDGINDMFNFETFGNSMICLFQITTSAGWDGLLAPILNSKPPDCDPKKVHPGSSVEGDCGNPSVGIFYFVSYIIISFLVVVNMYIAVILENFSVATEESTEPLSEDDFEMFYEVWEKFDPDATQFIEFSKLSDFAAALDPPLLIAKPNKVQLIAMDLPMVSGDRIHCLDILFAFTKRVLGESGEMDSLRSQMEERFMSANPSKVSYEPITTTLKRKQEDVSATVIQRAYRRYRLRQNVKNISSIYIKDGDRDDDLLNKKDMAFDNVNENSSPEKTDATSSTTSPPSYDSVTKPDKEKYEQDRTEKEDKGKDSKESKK

Row | Compound | IC50 [nM]
1 | O=S(=O)(Nc1cscn1)c1cc(Cl)c(Oc2cnc(-c3ccc(F)nc3)cc2-c2ccoc2)cc1F [Example 57, 5-chloro-2-fluoro-4-((6′-fluoro-4-(furan-3-yl)-[2,3′-bipyridin]-5-yl)oxy)-N-(thiazol-4-yl)benzenesulfonamide] | > 100
2 | O=S(=O)(Nc1cscn1)c1cc(Cl)c(Oc2cnc(-c3ccc(F)nc3F)cc2-c2ccoc2)cc1F [Example 58, 5-chloro-4-((2′,6′-difluoro-4-(furan-3-yl)-[2,3′-bipyridin]-5-yl)oxy)-2-fluoro-N-(thiazol-4-yl)benzenesulfonamide] | > 100
3 | O=S(=O)(Nc1cscn1)c1cc(Cl)c(Oc2cnc(-c3cccc(F)c3)cc2-c2ccoc2)cc1F [Example 59, 5-chloro-2-fluoro-4-((6-(3-fluorophenyl)-4-(furan-3-yl)pyridin-3-yl)oxy)-N-(thiazol-4-yl)benzenesulfonamide] | > 100
4 | O=S(=O)(Nc1cscn1)c1cc(Cl)c(Oc2cnc(-c3ccccc3F)cc2-c2ccoc2)cc1F [Example 60, 5-chloro-2-fluoro-4-((6-(2-fluorophenyl)-4-(furan-3-yl)pyridin-3-yl)oxy)-N-(thiazol-4-yl)benzenesulfonamide] | > 100
5 | O=S(=O)(Nc1cscn1)c1cc(Cl)c(Oc2cnc(-c3ccc(F)cc3)cc2-c2ccoc2)cc1F [Example 61, 5-chloro-2-fluoro-4-((6-(4-fluorophenyl)-4-(furan-3-yl)pyridin-3-yl)oxy)-N-(thiazol-4-yl)benzenesulfonamide] | > 100
6 | O=S(=O)(Nc1cscn1)c1cc(Cl)c(Oc2cnc(-c3ccnc(F)c3)cc2-c2ccoc2)cc1F [Example 62, 5-chloro-2-fluoro-4-((2′-fluoro-4-(furan-3-yl)-[2,4′-bipyridin]-5-yl)oxy)-N-(thiazol-4-yl)benzenesulfonamide] | > 100
7 | Cn1cc(-c2cc(-c3ccccc3F)ncc2Oc2cc(F)c(S(=O)(=O)Nc3cscn3)cc2Cl)cn1 [Example 63, 5-chloro-2-fluoro-4-((6-(2-fluorophenyl)-4-(1-methyl-1H-pyrazol-4-yl)pyridin-3-yl)oxy)-N-(thiazol-4-yl)benzenesulfonamide 2,2,2-trifluoroacetate] | > 100
8 | Cn1cc(-c2cc(-c3ccc(F)cc3)ncc2Oc2cc(F)c(S(=O)(=O)Nc3cscn3)cc2Cl)cn1 [Example 65, 5-chloro-2-fluoro-4-((6-(4-fluorophenyl)-4-(1-methyl-1H-pyrazol-4-yl)pyridin-3-yl)oxy)-N-(thiazol-4-yl)benzenesulfonamide 2,2,2-trifluoroacetate] | > 100
9 | Cn1cc(-c2cc(-c3ccc(F)cc3F)ncc2Oc2cc(F)c(S(=O)(=O)Nc3cscn3)cc2Cl)cn1 [Example 66, 5-chloro-4-((6-(2,4-difluorophenyl)-4-(1-methyl-1H-pyrazol-4-yl)pyridin-3-yl)oxy)-2-fluoro-N-(thiazol-4-yl)benzenesulfonamide 2,2,2-trifluoroacetate] | > 100
10 | Cn1cc(-c2cc(-c3ccc(F)c(F)c3)ncc2Oc2cc(F)c(S(=O)(=O)Nc3cscn3)cc2Cl)cn1 [Example 67, 5-chloro-4-((6-(3,4-difluorophenyl)-4-(1-methyl-1H-pyrazol-4-yl)pyridin-3-yl)oxy)-2-fluoro-N-(thiazol-4-yl)benzenesulfonamide 2,2,2-trifluoroacetate] | > 100
11 | Cn1cc(-c2cc(-c3ccnc(F)c3)ncc2Oc2cc(F)c(S(=O)(=O)Nc3cscn3)cc2Cl)cn1 [Example 68, 5-chloro-2-fluoro-4-((2′-fluoro-4-(1-methyl-1H-pyrazol-4-yl)-[2,4′-bipyridin]-5-yl)oxy)-N-(thiazol-4-yl)benzenesulfonamide 2,2,2-trifluoroacetate] | > 100
12 | Cn1cc(-c2cc(-c3cccnc3F)ncc2Oc2cc(F)c(S(=O)(=O)Nc3cscn3)cc2Cl)cn1 [Example 69, 5-chloro-2-fluoro-4-((2′-fluoro-4-(1-methyl-1H-pyrazol-4-yl)-[2,3′-bipyridin]-5-yl)oxy)-N-(thiazol-4-yl)benzenesulfonamide 2,2,2-trifluoroacetate] | > 100
